One data set deals with EGFR. Description: EGFR signaling in zebrafish embryos (EGFR dimers, EGFR phosphorylation, GSK3β). In kind it is in vivo.
The test system of the next data set is zebrafish embryos. Description: Whole mount in situ hybridization (WISH) of snail, versican and cdh5 in zebrafish embryos. In kind it is in vivo. As for the experimental part:
EGFR inhibitor AG 1478 (CalBiochem) was dissolved in DMSO and stocked as 1 mM at -20° C. […] Before use, the solution was re-dissolved at 65° C. for 1 h. In the control group, 100 embryos were placed in a 9 cm dish filled with a volume of 30 ml embryo medium containing 0.2 mM 1-phenyl-2-thio-urea (Sigma). […] Long-term treatment during 12-72 hpf included the specification stage of valve formation at 36-55 hpf and the invagination stage of valve formation at 55 hpf. Treatment during 12-48 hpf was used to examine the gene markers versican and cdh5 which expressed at the AVC. […] During mouse embryonic valve formation, Snail (Snail) in Snail family acts as the […] of cdh5 that inhibit the transcription of cdh5. […] WISH was performed as previously described (Nucleic Acids Res 2010; 38:4384-93). Riboprobe of cdh5 was prepared by cloning its partial DNA fragment, while riboprobe of versican was provided by […] (Nature 2003; 425:633-7). […] FIG. 7H).

Data set [1] relates to B16OVA. The data set can be described thus: Level of AKT, pAKT, ERK and p-ERK in treated cells. In kind it is cell-based, murine. The conditions noted are these: 15 μM, vs control cells. An excerpt:
(§1) […]. The EGFR signaling regulates cell proliferation through activates EGFR's intrinsic kinase and leads to activation of several downstream intracellular signaling pathways, including rat sarcoma-MAPK kinase (MEK)-extracellular-related kinase (ERK) and phosphoinositide 3-kinase (PI3K)-Akt pathways. It was reported the opposing effects of V1 and V2 on cell proliferation. […] […].

The subject of data set [2] is B16OVA. Description: Versican V1, V2, Snail and E-cadherin protein level in treated cells. In kind it is cell-based, murine. The conditions noted are these: 15 μM for 24 hr. From the text: (§2) […]. […] […]. […] […].
Data set [3] relates to 4T-1 cells. Description: Level of AKT, pAKT, ERK and p-ERK in treated cells. In kind it is cell-based, mouse. The conditions noted are these: 15 μM, vs control cells.
Source text: as §1

The test system of data set [4] is JC. The data set can be described thus: Level of AKT, pAKT, ERK and p-ERK in treated cells. In kind it is cell-based, mouse. The settings on record: 15 μM, vs control cells.
Source text: as §1

The next data set concerns B16OVA cells. On the procedure:
(§3) For wound healing assays, B16OVA, JC or 4T-1 cells (1×10^6) were seeded onto 6-well plates in DMEM/RPMI 1640 medium and maintained at 37° C. until they reached 95% confluence. The monolayer of cells was wounded by a sterile pipette tip to create a 1-mm cell-free path. Culture medium was removed and the samples were washed with PBS, followed by culturing in DMEM/RPMI 1640 medium with 10 μg/ml of the Mitomycin C. Cells were photographed under a low-magnification microscope. […] The distances between the wounding centre and the front of the migrating cells (vertical axis) were measured for statistical analysis. […] To determine cell migration in the absence of cell proliferation, Mitomycin C was used to block mitosis and thus allowed the analysis of cell migration in the absence of cell proliferation.

Data set [5] has as its system zebrafish embryos Tg(cmlc2:HcRFP). The data set can be described thus: In vivo observation of cardiac valve development in zebrafish embryos by HGM/2PF. On the procedure:
The zebrafish AB strain, as well as transgenic lines Tg(cmlc2:HcRFP) and Tg(cmlc2:EGFP), were cultured as previously described. Heart formation was observed under fluorescent stereomicroscopy (MZ Leica). […] The excitation source was a femtosecond Cr:forsterite laser with an output wavelength of 1230 nm. Second harmonic generation (SHG) and third harmonic generation (THG; J Struct Biol. 2004 147: 19-30) were applied to observe valve development in transgenic zebrafish Tg(cmlc2:HcRFP) in vivo. RFP marked the myocardial cells, while THG (410 nm) marked all cells in yellow, and SHG (615 nm) marked the skeletal and cardiac muscles in green. Paraffin sectioning with Hematoxylin and Eosin (H&E) staining was also used to perform histochemical analysis of the heart.
EGFR inhibitor AG 1478 (CalBiochem) was dissolved in DMSO and stocked as 1 mM at −20° C. […] Before use, the solution was re-dissolved at 65° C. for 1 h. In the control group, 100 embryos were placed in a 9 cm dish filled with a volume of 30 ml embryo medium containing 0.2 mM 1-phenyl-2-thio-urea (Sigma). […] Long-term treatment during 12-72 hpf included the specification stage of valve formation at 36-55 hpf and the invagination stage of valve formation at 55 hpf. Treatment during 12-48 hpf was used to examine the gene markers versican and cdh5 which expressed at the AVC.
By using HGH/2 PF to examine the zebrafish embryos derived from transgenic line Tg(cmlc2:HcRFP), the dynamics of valve development in vivo could easily be observed. For example, at 48 hpf, there was a single layer of cells in the endocardium at the AVC (FIG. 1A). […] Finally, at 87 hpf, the elongated structure was protruding towards the ventricle (FIG. 1C).

Data set [6] deals with B16OVA. Description: MTT cell survival assay. The settings on record: 24 hr. In kind it is cell-based, murine. As for the experimental part: (§4) […]. Data is represented as a percentage of the DMSO control (DMSO), which is set to 100% and is expressed as mean±SEM (n=3).
(§5) It is well known that the Versican V1 increases EGFR signaling. […]. […]. Cells were plated at a density of 1×10^4 per well in 96-well plates and incubated for 12-16 h to allow cells to adhere. After 24 h, 0.5 mg/mL 3-(4,5-dimethylthiazol-2-yl)-2,5-diphenyltetrazolium bromide (MTT; Sigma) was added, and the cells were incubated for 4 h. Following incubation, each well was added 100 μl of 10% SDS/0.01N HCl solution and shaking for 5 min. Then, the absorbance was measured at 570 nm. Results were representative of three independent experiments, each done in quintuplicate. […].
A general note: Formazan colour is commonly taken as a measure of viable cells.

Another data set deals with JC cell. Description: MTT cell survival assay. In kind it is cell-based, mouse. The settings on record: 24 hr. As for the experimental part: as §4, §5
The subject of data set [7] is JC cells. The data set can be described thus: Tumor growth in Balb/c mice after SC injection of treated JC cells. In kind it is in vivo. The settings on record: tumors from treated JC cells, vs control group and Mitomycin C-treated group. From the text:
[…]. […] For each group of tumors, the average volume for 3 tumors is plotted. Bars=95% confidence intervals.
Balb/c mice were inoculated by SC injection into the flank with contorl-Mitomycin C- or Amiodarone-treated JC cells. Each group had 3 mice, which were assigned to experimental groups randomly. All the other mice were sacrificed 2 weeks after treatment. […].

A further data set deals with S-vcanb. The data set can be described thus: Western blot of S-vcanb protein in zebrafish embryos. The settings on record: treated embryos. In kind it is in vivo.
Data set [8] concerns 4T-1 cells. The data set can be described thus: Versican V1, V2, Snail and E-cadherin protein level in treated cells. In kind it is cell-based, mouse. The settings on record: 15 μM for 24 hr.
Source text: as §2

In data set [9] the test system is JC. The data set is described as above. In kind it is cell-based, mouse. The conditions noted are these: 15 μM for 24 hr.
Source text: as §2

In data set [10] the test system is JC cells. The conditions noted are these: Mitomycin C alone, 10 μg/ml. As for the experimental part: as §3
The test system of another data set is Cdh5. Description: Western blot of Cdh5 protein in zebrafish embryos. In kind it is in vivo. The settings on record: 1.5 ng injected at one cell stage, 72 hpf embryos. On the procedure: Cdh5 antibody was used to detect the amount of Cdh5 protein expression by Western blot. The embryos were dechorionated and deyolked with two extra washing steps as described in Link et al. (BMC Dev Biol 2006; 6:1). Deyolked samples were dissolved in 2 μl of 2×SDS sample buffer for each embryo and incubated for 5 min at 95[…]. After full-speed centrifugation for 1 min in a microcentrifuge to remove insoluble particles, total proteins extracted from embryos were analyzed on a 12% SDS-PAGE gel, and Western blot analysis was performed (J Biol Chem 2011; 286:6855-64) using antiserum against mouse Cdh5 (15; 1:10,000). Anti-α-tubulin and anti-β-actin served as a protein loading control. Knockdown experiments were performed as follows: morpholino nucleic acid oligomers (MOs) were purchased from GeneTools (USA): vcana-MO ([…], SEQ ID NO: 1); s-vcanb-MO ([…], SEQ ID NO: 2); snai1b-MO ([…], SEQ ID NO: 3) (Development 134, 4073-4081, 2007); cdh5-MO ([…], SEQ ID NO: 4) (Developmental Dynamics. 2004. 231, 204-213; PloS One 2010. 5, e8807); troponin T2a, cardiac-MO (5′-[…]-3′, SEQ ID NO: 5) (Nat. Genet. 2002. 31, 106-110); and standard control-MO ([…], SEQ ID NO: 6). […]

Take `COc1cc2ncnc(Nc3cccc(Cl)c3)c2cc1OC` [AG1478]: in the data set on EGFR (AG1478 treatment, 7 μM), the “activity of GSK3β” value was “increased significantly” and the “total level of GSK3β” value was “unchanged”. Moreover, in the data set with zebrafish embryos (7 μM, embryos at 55 to 72 hpf), the “cdh5 expression at the heart field” value is reported as “ectopic expression” and the snail1b expression entry is listed as “lost”.
Take `CCCCc1oc2ccccc2c1C(=O)c1cc(I)c(OCCN(CC)CC)c(I)c1` [Amiodarone]: the “phosphorylated AKT” value with B16OVA [1], with 4T-1 cells [3] and with JC [4] was “reduced greatly” in each case. Further, the “phosphorylated ERK42/44” value with B16OVA [1], in the data set on 4T-1 cells [3] and in the data set with JC [4] was “reduced greatly” throughout. Moreover, the “total level of AKT” value in the data set on B16OVA [1], in the data set on 4T-1 cells [3] and in the data set on JC [4] was “unchanged” throughout. The “total level of ERK” value in the data set on B16OVA [1], in the data set with 4T-1 cells [3] and in the data set on JC [4] was “unchanged” in each case. Also, the E-cadherin protein level result in the data set with B16OVA [2], in the data set with 4T-1 cells [8] and in the data set with JC [9] was “increased significantly” throughout. Also, the Snail protein level entry in the data set on B16OVA [2], in the data set on 4T-1 cells [8] and in the data set on JC [9] was “greatly reduced” each time. The figures for the “Versican V1 expression” value in the data set on B16OVA [2], in the data set with 4T-1 cells [8] and in the data set with JC [9] were “reduced”, “no difference” and “reduced”, respectively. For the same compound, the “Versican V2 expression” value in the data set with B16OVA [2] (vs control cells), in the data set with 4T-1 cells [8] (vs control cells) and in the data set with JC [9] (vs control cells) was “increased” throughout. The morphological change entry with B16OVA cells (cells at a growing phase, vs control cells) is “appeared more stripe and spread out than control cells”. Moreover, the “endocardial cells at the AVC” value in data set [5] (15 μM during 12-48 hpf) is “no difference between treated and untreated embryos”. For the same compound, in [5] (15 μM during 12-72 hpf), the valve structure result is “only a small aggregation of cells were seen at the upper valve site”. Also, in [5] (15 μM during 12-87 hpf, compared to untreated embryos), the “cellular aggregation at the valve region” value was “almost no cellular aggregation at the valve region”. The “cell survival (MTT)” value in the data set with B16OVA [6] (15 μM) is listed as “did not influence”; in the data set with B16OVA [6] (10˜30 μM), “does not influence”; in the data set with JC cell (15 μM) it was “did not influence”; in the data set with JC cell (10˜30 μM), “does not influence”. Besides, in the data set on EGFR (72 hpf treated embryos), the EGFR dimeration entry was “increased”. Also, the “activity of GSK3β” value in the data set on EGFR (Amiodarone treated embryos) was “increased significantly”. Also, the “total level of GSK3β” value in the data set on EGFR (Amiodarone treated embryos) is “unchanged”. In the data set on EGFR (treated embryos, dosage dependent manner), the “phosphorylation of EGFR (Tyr-845)” value is reported as “reduced”. The “snai1b mRNA expression at the AVC” value in the data set on zebrafish embryos (15 μM, treated during 55-72 hpf, observed at 72 hpf) is “lost and decreased or even disappeared”. In the data set with zebrafish embryos (72 hpf embryos), the “vcana and s-vcanb expression at the heart field” value is given as “induced”. In the data set on zebrafish embryos (treated during 55-72 hpf, observed at 72 hpf), the “snai1a mRNA expression in the heart” value is reported as “still was not expressed in the heart”. Also, the tumor growth entry in the data set with JC cells [7] is “grew slower”. Besides, the “expression of S-vcanb protein” value in the data set with S-vcanb is recorded as “increased”.
As for `CO[C@@]12[C@H](COC(N)=O)C3=C(C(=O)C(C)=C(N)C3=O)N1C[C@@H]1N[C@@H]12` [Mitomycin C], the “time course of wound closure” value with JC cells [10] was “did not affect the time course of wound closure”; in the data set with B16OVA cells (Mitomycin C alone, 10 μg/ml) it was “did not affect the time course of wound closure”.
Take “snail1b-MO: morpholino nucleic acid oligomer TTGACAAGA AATGAGCGTGGCATCT, SEQ ID NO: 3 (antisense TTGACAAGAAATGAGCGTGGCATCT; all phosphorodiamidate morpholino (PMO))”: the “expression of Cdh5 protein relative to wild-type” value in the data set with Cdh5 is 1.5 fold.
